Laboratory results published in patent publication US20210239681A1, “COMPOSITIONS AND METHODS FOR […] OF […]-BASED IMMUNOTHERAPEUTICS” (ADVAXIS, INC., priority 2018, published 2021).

Experiments:
Type in all cases: cell-based, human
[1] = system: 10mer specific T cells; assay: Co-culture of THP-1 with 10mer specific T cells, cytokine production; design: IFNγ / IL-10 / IL-13 / IL-1β / IL-2 / IL-5 / IL-6 / TNF-α: unit not given here; settings: for IFNγ production, with 10mer specific T cells: Listeria MOI of 10, optical density
Source text: (§1) Analysis Kits and Reagents: Analysis of cytokine concentrations in culture medium used the U-plex assay kits from Meso Scale Discovery. Expression of T cell receptors specific for E7 peptide bound to HLA-A*02:01 was detected using HLA-A*02:01/peptide tetramers from MBL International (Woburn, Mass.).
(§2) There were several possible explanations for the muted response with THP-1 cells infected with ADSX11: including failure of THP-1 cells to process the 10mer epitope from full length E7 protein, failure of the THP-1 cells to present the processed 10mer E7 peptide on HLA-A*02:01, insufficient incubation of the infected cells to allow synthesis of the E7 protein and accumulation of the MHC/peptide complex on the cell surface, and/or an inhibitory effect of gentamicin. A culture of T cells specific for the 9mer epitope was used as well as a new culture of 10mer specific T cells. The THP-1 cells were infected as before with XFL7 or ADXS11-001 at an MOI of 10. After treatment with gentamicin for one hour, the cells were cultured overnight in the absence of gentamicin. The next day the infected cells were collected and co-cultured with 9mer or 10mer specific T cells. These co-cultures were set up in standard X-VIVO 15 and X-VIVO 15 without gentamicin or phenol red. The co-cultures were incubated overnight before collecting medium for cytokine analysis. The medium was tested for IFNγ concentrations and optical density. […] In addition, the 10mer specific T cells recognized ADXS11-001 infected THP-1 when there was no gentamicin in the medium.
(§3) To further explore the importance of the overnight incubation of infected THP-1, THP-1 cells infected overnight were compared to THP-1 cells infected for 2 hours. T cells specific for 9mer and 10mer peptides were co-cultured with each of the THP-1 cells and with uninfected or peptide exposed THP-1. As before, medium was collected after an overnight co-culture and cytokines were measured.
(§4) Optimization of infection time required for E7 presentation. THP-1 infected and cultured overnight compared to THP-1 infected for 2 hours and used after gentamicin treatment. Both 9-mer specific T cells and 10-mer specific T cells used. Assays were performed using X-VIVO 15 medium without gentamicin. The following cytokines were measured: IFNγ, IL-1β, IL-2, IL-10, IL-12p70, IL-13, IL-5, IL-6, TNFα.

[2] = system: THP-1 cells; assay: Cytokine production by THP-1 in the absence of T cells; design: IL-6: unit not given here
Procedure: as §1
Infection of THP-1: The THP-1 cell line was infected with either ADXS11-001 or XFL7 by incubating 10^6 cells with dilutions of bacteria in a 1 mL volume of RPMI 1640 10% FBS. […] After incubation with gentamicin the cells were washed again and resuspended to the desired cell concentration.
(§5) T cell cytokine expression analysis. An initial experiment using THP-1 as antigen presenting cells was performed using a T cell culture containing 6% E7 (11-20) specific T cells based upon staining with HLA-A*02:01/peptide tetramer. THP-1 cells were infected as described using two different concentrations of bacteria and then co-cultured with the T cells. Controls included uninfected THP-1 cells and THP-1 cells incubated with (exposed to) either the 9mer or 10mer peptide for one hour. After an overnight co-culture, medium was collected for analysis of cytokines.
as §3
Titration studies with different multiplicity of infection (MOI). THP cells were infected for 2 hours with 3 different dilutions (MOI) of Listeria. Infected or uninfected THP cells were then cultured overnight for 24 hours before co-culturing the T cells. Cells were co-cultured overnight before cytokine analysis.

[3] = system: PBMC; assay: Cytokine release by donor PBMC cultured with peptide; design: unit not given beside the values; settings: release on antigen
Procedure: Peripheral blood mononuclear cells (PBMCs) samples were collected from three human HLA-A*02:01 donors: 358, 213, and 224. The peripheral blood mononuclear cells (PBMCs) were cultured with one of two E7 peptides: […] (9mer or 1T; SEQ ID NO: 100) or […] (10mer or 2T; SEQ ID NO: 101). After 10 days culture, the PBMCs were tested for E7 peptide binding staining and cytokine release.

[4] = system: THP-1 cells; assay: Cytokine production by THP-1 in the absence of T cells; settings: Without gentamicin; Listeria MOI of 10; optical density
[5] = system: 9mer specific T cells; assay: Co-culture of THP-1 with 9mer specific T cells, cytokine production; design: IFNγ / IL-10 / IL-12p70 / IL-13 / IL-1β / IL-2 / IL-5 / IL-6 / TNF-α: unit not given here; settings: for IFNγ production, with 9mer specific T cells: Listeria MOI of 10, optical density
Source text: as §1, §2, §3, §4

[6] = system: T cells; assay: Intracellular cytokine staining of T cells; settings: Brefeldin A, FIG. 9
Procedure: (§6) To identify cytokines that can be used to measure potency of a Listeria-based therapeutic the following tests were performed. Intracellular cytokine staining was used to detect T cells specificity. THP-1 were incubated with peptide overnight, mixed with T cells from above and centrifuged. The collected cells were then co-cultured at 37° C. for 1 hour. Brefeldin A was then added and the cells were co-cultured for another 4 hours. Brefeldin A inhibits secretion and permits analysis by flow cytometry. Cell were then stained to identify dead cells and CD8+ cells. The cell were then fixed and stained for IFNγ (using fix and permeabilization buffer from eBioscience/Invitrogen).

[7] = system: THP-1 cells; assay: Intracellular cytokine staining of THP-1 cells; settings: FIGS. 3A-3C, FIG. 10
Procedure: as §6
Intracellular cytokine staining of THP-1 cells.

[8] = system: E7 (11-20) specific T cells; assay: Initial THP-1 / T cell co-culture cytokine production (T cell culture with 6% E7 (11-20) specific T cells); design: IFNγ / TNF-α / IL-10 / IL-12p70 / IL-13 / IL-1β / IL-2 / IL-4 / IL-6 / IL-8: unit not given here; settings: T cells and THP-1 incubated with peptide one hour; overnight co-culture
Procedure: as §1
Infection of THP-1: The THP-1 cell line was infected with either ADXS11-001 or XFL7 by incubating 10^6 cells with dilutions of bacteria in a 1 mL volume of RPMI 1640 10% FBS. Incubation with bacteria was at 37° C., 5% CO2 for the indicated times, then extracellular bacteria were eliminated by washing and incubation in the presence of 50 μg/mL gentamicin for 1 hour at 37° C. After incubation with gentamicin the cells were washed again and resuspended to the desired cell concentration.
as §5

[9] = 10mer T cells + peptide exposed THP-1, overnight co-culture
[10] = THP-1 incubated with peptide, absence of T cells
[11] = 9mer T cells + peptide exposed THP-1, overnight co-culture

For YMLDLQPET [9mer], the “IFNγ production, with 10mer specific T cells” value ([1]; 50 μg/mL gentamicin) was 0.063, the IFNγ [1, 9] was 103 and the IL-1β [1, 9] was “<LLOD”. The IL-2 [1, 9] was “<LLOD”, the IL-5 [1, 9] was “<LLOD” and the IL-6 [1, 9] was “<LLOD”. For the same substance, the IL-10 [1, 9] was 0, the IL-12p70 [1, 9] was “<LLOD” and the IL-13 [1, 9] was “<LLOD”. The TNF-α [1, 9] was “<LLOD”, the “IFNγ production, with 10mer specific T cells” value ([1]; Without gentamicin) was 0.062 and the “IFNγ production, THP-1 alone” value ([2]; 50 μg/mL gentamicin, Listeria MOI of 10, optical density) was 0.064. For the same substance, the IFNγ ([2]; THP-1 alone, peptide exposed) was “<LLOD”, the IL-1β ([2]; THP-1 alone, peptide exposed) was “<LLOD” and the IL-2 ([2]; THP-1 alone, peptide exposed) was “<LLOD”. For the same substance, the IL-5 ([2]; THP-1 alone, peptide exposed) was “<LLOD”, the IL-6 ([2]; THP-1 alone, peptide exposed) was “<LLOD” and the IL-10 ([2]; THP-1 alone, peptide exposed) was “<LLOD”. For the same substance, the IL-12p70 ([2]; THP-1 alone, peptide exposed) was “<LLOD”, the IL-13 ([2]; THP-1 alone, peptide exposed) was “<LLOD” and the TNF-α ([2]; THP-1 alone, peptide exposed) was 0. The IFNγ [2, 10] was “<LLOD”, the IL-1β [2, 10] was 0.0 and the IL-2 [2, 10] was “<LLOD”. For the same substance, the IL-4 [2, 10] was “<LLOD”, the IL-6 [2, 10] was “<LLOD” and the IL-8 [2, 10] was 7.3. For the same substance, the IL-10 [2, 10] was “<LLOD”, the IL-12p70 [2, 10] was “<LLOD” and the IL-13 [2, 10] was “<LLOD”. For the same substance, the TNF-α [2, 10] was “<LLOD”, the “IFNγ Mean” value ([3]; donor 213 PBMC cultured with 1T peptide) was 242.6 and the “IFNγ Mean” value ([3]; donor 358 PBMC stimulated with 1T) was 1642.7. For the same substance, the “IFNγ Mean” value ([3]; donor 358 PBMC stimulated with 2T) was 352.4, the “IFNγ production, THP-1 alone” value [4] was 0.059 and the “IFNγ production, with 9mer specific T cells” value ([5]; 50 μg/mL gentamicin) was 0.177. It also gave an IFNγ [5, 11] of 4713, an IL-1β [5, 11] of 0 and an IL-2 [5, 11] of 18. It also gave an IL-5 [5, 11] of 0, an IL-6 [5, 11] of 13 and an IL-10 [5, 11] of 1. The IL-12p70 [5, 11] was 0, the IL-13 [5, 11] was 3 and the TNF-α [5, 11] was 74. The “IFNγ production, with 9mer specific T cells” value ([5]; Without gentamicin) was 0.117, the “IFNγ in T cells after stimulation with peptide” value [6] was “detected” and the “Basal IFNγ in THP-1 cells after stimulation with peptide” value [7] was “not detectable”. The IFNγ [8] was 1508.2, the IL-1β [8] was 1.0 and the IL-2 [8] was 3.7. The IL-4 [8] was 0.2, the IL-6 [8] was 4.2 and the IL-8 [8] was 405.7. For the same substance, the IL-10 [8] was 2.1, the IL-12p70 [8] was “<LLOD” and the IL-13 [8] was 120.3. For the same substance, the TNF-α [8] was 57.1.
For gentamicin, the “effect of gentamicin in the culture medium on antigen presentation” value ([1]; Listeria-based infection of THP-1, 50 μg/mL) was “inhibits expression of E7 or antigen presentation”.
